Reference: PubChem BioAssay (NCI)
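A five-concentration, 48-hour dose response in 96-well plates underlies each endpoint, interpolated linearly between surrounding concentrations. Abbreviation: GI50, concentration required for 50% inhibition of growth. Definition used: TGI = concentration required for complete inhibition of growth.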

Tests used:
Experiment in all cases: inhibition of tumour cell growth, NCI panel, 48 h
786-0 renal = system: 786-0 renal
SN12C renal = system: SN12C renal
HCT-116 colon = system: HCT-116 colon
SR leukemia = system: SR leukemia
DMS 114 small cell lung = system: DMS 114 small cell lung
SNB-78 CNS = system: SNB-78 CNS
U251 CNS = system: U251 CNS
RPMI-8226 leukemia = system: RPMI-8226 leukemia
PC-3 prostate = system: PC-3 prostate
MDA-MB-435 = system: MDA-MB-435

| SMILES | GI50 (786-0 renal) [µM] | TGI (786-0 renal) [µM] | GI50 (SN12C renal) [µM] | TGI (SN12C renal) [µM] | GI50 (HCT-116 colon) [µM] | TGI (HCT-116 colon) [µM] | GI50 (SR leukemia) [µM] | TGI (SR leukemia) [µM] | GI50 (DMS 114 small cell lung) [µM] | TGI (DMS 114 small cell lung) [µM] | GI50 (SNB-78 CNS) [µM] | TGI (SNB-78 CNS) [µM] | GI50 (U251 CNS) [µM] | TGI (U251 CNS) [µM] | GI50 (RPMI-8226 leukemia) [µM] | TGI (RPMI-8226 leukemia) [µM] | GI50 (PC-3 prostate) [µM] | TGI (PC-3 prostate) [µM] | GI50 (MDA-MB-435) [µM] | TGI (MDA-MB-435) [µM] |
| --- | --- | --- | --- | --- | --- | --- | --- | --- | --- | --- | --- | --- | --- | --- | --- | --- | --- | --- | --- | --- |
| CN(C)c1ccc([O][Bi]([Cl])[Cl])cc1 | > 100 | > 100 | > 100 | > 100 | > 100 | > 100 | 80.1 | > 100 | 87.9 | > 100 | > 100 | > 100 | > 100 | > 100 | – | – | – | – | – | – |
| Cc1ccccc1C(=O)c1ccccc1O | – | > 100 | – | > 100 | – | > 100 | – | – | – | > 100 | – | > 100 | – | > 100 | – | – | – | – | – | – |
| CC1=C2C[C@H]3[C@@H](CC[C@@H]4CC(NS(C)(=O)=O)CC[C@@]43C)[C@@H]2CC[C@@]2(C1)O[C@@H]1C[C@H](C)CN[C@H]1[C@H]2C (stereo not given in full) | 8.94 | 24.2 | 10.4 | 23.4 | 4.77 | 18.4 | 3.38 | 12 | – | – | – | – | 6.92 | 20.8 | 7.62 | 29.5 | 4.39 | 17.3 | 8.1 | 22.8 |
| COc1ccccc1CCN=C1NC(=O)/C(=C/c2ccc3ncccc3c2)S1 | 8.24 | > 25 | 6.93 | > 25 | 1.63 | > 12.4 | 0.743 | 3.02 | – | – | – | – | 4.1 | 24.9 | 4.33 | 19.6 | 4.54 | > 25 | 1.43 | > 25 |
| O=C1NC(O)C(c2c[nH]c3ccccc23)=C1c1c[nH]c2ccccc12 (stereo not given) | > 25 | > 25 | > 25 | > 25 | > 25 | > 25 | > 23.7 | > 25 | – | – | – | – | > 25 | > 25 | > 25 | > 25 | 24.8 | > 25 | > 25 | > 25 |
| CCCc1cc2c(=O)c(C(=O)OC)c[nH]c2cc1N(CC)CC | 19.6 | 39.8 | 41.2 | > 100 | 21.5 | 59.1 | 39.3 | > 100 | – | – | – | – | 18.2 | 39.8 | 63.2 | > 100 | 23.3 | > 100 | 47.5 | > 100 |
| Cn1c(/C=C(\C#N)c2ccccc2)nc2c(N3CCOCC3)nc(Cl)nc21 | 1.56 | 3.05 | 1.12 | 2.48 | 0.178 | 0.432 | 0.393 | 2.1 | – | – | – | – | 1.47 | 2.97 | 0.254 | 0.804 | 0.849 | 2.99 | 1.3 | 2.78 |
